Results as given in patent US11001569B2, “6-membered heteroaromatic substituted cyanoindoline derivatives as NIK inhibitors” (Janssen Pharmaceutica NV, priority 2016, dated 2021).
Where “and” joins values, the source holds several entries; their conditions need not be identical. Equal entries are not always repeated. Where two headings read alike, the source gives them in different places.

Experiments:
[1] = target: recombinant human NF-kappaB-inducing Kinase (NIK/MAP3K14) (Homo sapiens, UniProt Q99558); assay: Inhibition of auto-phosphorylation of recombinant human NIK/MAP3K14 activity (AlphaScreen); type: biochemical; details: 25 microM ATP, averaged over all measurements on all batches
Sequence of recombinant human NF-kappaB-inducing Kinase (NIK/MAP3K14) (Q99558 whole entry): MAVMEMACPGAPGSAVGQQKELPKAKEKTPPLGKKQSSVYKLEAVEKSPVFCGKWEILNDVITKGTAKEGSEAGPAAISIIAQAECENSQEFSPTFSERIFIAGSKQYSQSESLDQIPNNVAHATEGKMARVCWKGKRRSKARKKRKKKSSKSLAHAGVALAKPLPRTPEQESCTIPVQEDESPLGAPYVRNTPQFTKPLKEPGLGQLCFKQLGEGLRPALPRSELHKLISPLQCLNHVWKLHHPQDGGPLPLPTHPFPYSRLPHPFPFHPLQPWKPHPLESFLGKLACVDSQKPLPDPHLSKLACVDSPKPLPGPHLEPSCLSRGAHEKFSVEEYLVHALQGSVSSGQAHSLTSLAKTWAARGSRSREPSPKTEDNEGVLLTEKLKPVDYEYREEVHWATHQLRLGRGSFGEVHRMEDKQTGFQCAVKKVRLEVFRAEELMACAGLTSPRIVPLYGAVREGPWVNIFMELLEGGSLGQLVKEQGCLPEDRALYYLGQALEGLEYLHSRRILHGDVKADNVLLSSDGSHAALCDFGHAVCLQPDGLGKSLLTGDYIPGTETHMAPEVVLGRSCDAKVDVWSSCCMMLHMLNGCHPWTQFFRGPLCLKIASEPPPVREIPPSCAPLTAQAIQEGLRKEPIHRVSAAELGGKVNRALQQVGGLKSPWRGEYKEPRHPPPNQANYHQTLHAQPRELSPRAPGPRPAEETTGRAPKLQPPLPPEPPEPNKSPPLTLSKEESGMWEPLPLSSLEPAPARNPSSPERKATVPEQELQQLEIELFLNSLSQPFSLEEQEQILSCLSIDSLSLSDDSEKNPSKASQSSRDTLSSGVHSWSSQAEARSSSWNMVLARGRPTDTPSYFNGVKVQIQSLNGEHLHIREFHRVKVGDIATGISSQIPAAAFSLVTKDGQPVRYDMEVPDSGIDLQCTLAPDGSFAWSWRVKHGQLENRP
Procedure: Pharmacological Part Biological assay A Inhibition of auto-phosphorylation of recombinant human NF-kappaB-inducing Kinase (NIK/MAP3K14) Activity (AlphaScreen®)
NIK/MAP3K14 auto-phosphorylation activity was measured using the AlphaScreen® (αscreen) format (Perkin Elmer). All compounds tested were dissolved in dimethyl sulfoxide (DMSO) and further dilutions were made in assay buffer. Final DMSO concentration was 1% (v/v) in assays. Assay buffer was 50 mM Tris pH 7.5 containing 1 mM EGTA (ethylene glycol tetraacetic acid), 1 mM DTT (dithiothreitol), 0.1 mM Na3VO4, 5 mM MgCl2, 0.01% Tween® 20. Assays were carried out in 384 well Alphaplates (Perkin Elmer). […] Incubations were initiated by addition of GST-tagged NIK/MAP3K14 enzyme, carried out for 1 h at 25° C. and terminated by addition of stop buffer containing anti-phospho-IKK Ser176/180 antibody. Protein A Acceptor and Glutathione-Donor beads were added before reading using an EnVision® Multilabel Plate Reader (Perkin Elmer). Signal obtained in the wells containing blank samples was subtracted from all other wells and IC50's were determined by fitting a sigmoidal curve to % inhibition of control versus Log10 compound concentration.

[2] = tested on: JJN-3 (NIK translocated) multiple myeloma cells; assay: Antiproliferative activity on JJN-3 multiple myeloma cells (CellTiter-Glo); type: cell-based, human; details: JJN-3 (NIK translocated) cells, 96 hr treatment, averaged values, read-out: JJN-3 Proliferation inhibition (IC50 (nM))
Procedure: (§1) Determination of Antiproliferative Activity on JJN-3 (NIK Translocated) and KMS12-BM (NIK WT) Multiple Myeloma Cells
(§2) All compounds tested were dissolved in DMSO and further dilutions were made in culture medium. Final DMSO concentration was 0.3% (v/v) in cell proliferation assays. Viability was assessed using CellTiter-Glo cell viability assay kit (Promega). […] Cells were routinely kept as suspension cells at 37° C. in a humidified 5% CO2 atmosphere. Cells were passaged at a seeding density of 0.2×10^6/ml twice a week. Cells were seeded in black tissue culture treated 96-well plates (Perkin Elmer). Densities used for plating ranged from 15000 (JJN3) to 20000 (KMS12BM) cells per well in a total volume of 135 μl medium. Drugs and/or solvents were added (15 μl) to a final volume of 150 μl. Following 96 hr of treatment, plates were removed from the incubator and allowed to equilibrate to room temperature for approx 10 min. 75 μl CellTiter-Glo reagent was added to each well that was then covered (Perkin Elmer Topseal) and shaken on plate shaker for 10 min. Luminescence was measured on a HTS Topcount (Perkin Elmer). […] For initial screening purposes, compounds were tested using a 9 point dilution curve (serial 1:3 dilutions). For each experiment, controls (containing no drug) and a blank incubation (containing cells read at the time of compound addition) were run in parallel. The blank value was subtracted from all control and sample values. For each sample, the mean value for cell growth (in relative light units) was expressed as a percentage of the mean value for cell growth of the control.

[3] = tested on: KMS12-BM (NIK WT) multiple myeloma cells; assay: Antiproliferative activity on KMS12-BM multiple myeloma cells (CellTiter-Glo); type: cell-based, human; details: 96 hr treatment, averaged values, read-out: KMS-12 Proliferation inhibition (IC50 (nM))
Procedure: as §1, §2

IC50 [1] [nM] | IC50 [2] [nM] | IC50 ([3]; Homo sapiens, KMS-12-BM, 96 h) [nM] | melting point | IC50 [3] [nM] | IC50 ([2]; Homo sapiens, JJN-3, 96 h) [nM] | Compound
19.5 |  |  |  |  |  | Cc1cnc(OCC2CCCN2C2CC2)c(Nc2nccc(-c3cc(C#N)c4c(c3)[C@@](C)(CO)CN4)n2)c1 (mixture of isomers) [Compound 175]
16.2 | 525 | > 10000 | 200 °C |  |  | Cc1ncc(Nc2nccc(-c3cc(C#N)c4c(c3)[C@@](C)(CO)CN4)n2)c(OCC2CCCO2)n1 (single isomer, unassigned) [Compound 137]
29.5 | 1510 |  |  | > 10000 |  | Cc1ncc(Nc2nccc(-c3cc(C#N)c4c(c3)[C@@](C)(CO)CN4)n2)c(OCC2CCCO2)n1 (single isomer, unassigned) [Compound 138]
8.3 |  | > 10000 | 254 °C |  | 81 | COc1ncc(Cl)cc1Nc1nccc(-c2cc(C#N)c3c(c2)C(C)(CO)CN3)n1 (stereo not drawn) [Compound 3]
3.6 |  | ~7410 | 277 °C and 280 °C |  | 97 | Cc1ncc(Cl)cc1Nc1nccc(-c2cc(C#N)c3c(c2)C(C)(CO)CN3)n1 (stereo not drawn) [Compound 4]
~8.51 |  | > 10000 | 261 °C |  | 170 | CC1(CO)CNc2c(C#N)cc(-c3ccnc(Nc4cc(Cl)cnc4Cl)n3)cc21 (stereo not drawn) [Compound 5]
2.4 |  | > 10000 | 241 °C |  | ~245 | COc1ncccc1Nc1nccc(-c2cc(C#N)c3c(c2)[C@@](C)(CO)CN3)n1 [Compound 6]
15.5 |  | > 10000 | 245 °C |  | 1580 | COc1ncccc1Nc1nccc(-c2cc(C#N)c3c(c2)[C@](C)(CO)CN3)n1 [Compound 7]
5.3 |  | 427 | 238 °C |  | 219 | CCOC(=O)c1ccc(Nc2nccc(-c3cc(C#N)c4c(c3)C(C)(CO)CN4)n2)cn1 (stereo not drawn) [Compound 9]
8.5 |  | > 10000 | 231 °C |  | 58 | COCCNc1nc(OC)c(Nc2nccc(-c3cc(C#N)c4c(c3)[C@@](C)(CO)CN4)n2)cc1Cl [Compound 10]
3 |  | 4790 | 192 °C |  | 339 | COCCCn1cccc(Nc2nccc(-c3cc(C#N)c4c(c3)[C@@](C)(CO)CN4)n2)c1=O [Compound 10i]
10.5 |  | > 10000 | 236 °C |  | ~347 | COCCNc1nc(OC)c(Nc2nccc(-c3cc(C#N)c4c(c3)[C@](C)(CO)CN4)n2)cc1Cl [Compound 11]
12.9 |  | > 10000 | 120 °C |  | 589 | COCCNc1ccc(Nc2nccc(-c3cc(C#N)c4c(c3)C(C)(CO)CN4)n2)c(OC)n1 (stereo not drawn) [Compound 12]
28.8 |  | > 10000 | 125 °C |  | 447 | COCCNc1nc(OC(C)C)c(Nc2nccc(-c3cc(C#N)c4c(c3)C(C)(CO)CN4)n2)cc1Cl (stereo not drawn) [Compound 13]
5.5 |  | > 10000 | 266 °C |  | 372 | COc1ncc(Cl)cc1Nc1nccc(-c2cc(C#N)c3c(c2)[C@@](C)(CO)CN3)n1 [Compound 14]
1.4 |  | > 10000 |  |  | 24 | COCCn1cc(Cl)cc(Nc2nccc(-c3cc(C#N)c4c(c3)[C@@](C)(CO)CN4)n2)c1=O [Compound 14i]
2.9 |  | > 10000 |  |  | 24 | CN1CCC(Oc2ncc(Cl)cc2Nc2nccc(-c3cc(C#N)c4c(c3)C(C)(CO)CN4)n2)CC1 (stereo not drawn) [Compound 15]
3.6 |  | > 10000 | 295 °C |  | ~427 | Cn1cc(Cl)cc(Nc2nccc(-c3cc(C#N)c4c(c3)C(C)(CO)CN4)n2)c1=O (stereo not drawn) [Compound 15i]
3.8 |  | > 10000 | 248 °C |  | 245 | CCOc1ncccc1Nc1nccc(-c2cc(C#N)c3c(c2)C(C)(CO)CN3)n1 (stereo not drawn) [Compound 16]

IC50 [1] [nM] | IC50 [2] [nM] | IC50 ([3]; Homo sapiens, KMS-12-BM, 96 h) [nM] | melting point | IC50 [3] [nM] | IC50 ([2]; Homo sapiens, JJN-3, 96 h) [nM] | Compound
2.5 |  | > 10000 | 248 °C |  | 288 | [2H]C([2H])([2H])Oc1ncccc1Nc1nccc(-c2cc(C#N)c3c(c2)C(C)(CO)CN3)n1 (stereo not drawn) [Compound 17]
9.1 |  | > 10000 | 140 °C |  | 776 | CC(C)Oc1ncccc1Nc1nccc(-c2cc(C#N)c3c(c2)C(C)(CO)CN3)n1 (stereo not drawn) [Compound 18]
10.2 |  | > 10000 |  |  | 417 | C[C@]1(CO)CNc2c(C#N)cc(-c3ccnc(Nc4cc(Cl)cnc4OC4CCOCC4)n3)cc21 [Compound 22]
6.5 |  | 437 |  |  | 89 | CC1(CO)CNc2c(C#N)cc(-c3ccnc(Nc4ccc(N5CCNCC5)cn4)n3)cc21 (stereo not drawn) [Compound 32]
4.2 |  | > 10000 |  |  | 298 | COCCOc1ncccc1Nc1nccc(-c2cc(C#N)c3c(c2)[C@@](C)(CO)CN3)n1 [Compound 33]
39.8 |  | > 10000 |  |  | 4070 | COc1nc(C(F)(F)F)ccc1Nc1nccc(-c2cc(C#N)c3c(c2)[C@@](C)(CO)CN3)n1 [Compound 54]
3.8 |  | > 10000 |  |  | ~144 | COc1nnc(Cl)cc1Nc1nccc(-c2cc(C#N)c3c(c2)C(C)(CO)CN3)n1 (stereo not drawn) [Compound 124]
4.6 |  | > 10000 |  |  | 468 | COc1ncncc1Nc1nccc(-c2cc(C#N)c3c(c2)C(C)(CO)CN3)n1 (stereo not drawn) [Compound 130]
12.9 |  | > 10000 |  |  | 3310 | Cc1nc(C)c(Cl)c(Nc2nccc(-c3cc(C#N)c4c(c3)[C@@](C)(CO)CN4)n2)n1 [Compound 132]
22.9 |  | > 10000 |  |  | ~1950 | Cc1nc(Nc2nccc(-c3cc(C#N)c4c(c3)[C@@](C)(CO)CN4)n2)cc(N2CCN(CCO)CC2)n1 [Compound 133]
38.9 |  | > 10000 |  |  | > 10000 | Cc1nc(Nc2nccc(-c3cc(C#N)c4c(c3)[C@@](C)(CO)CN4)n2)cc(N2CCOCC2)n1 [Compound 134]
17.8 |  | > 10000 |  |  | ~10000 | COCCOc1nc(P(C)(C)=O)ncc1Nc1nccc(-c2cc(C#N)c3c(c2)[C@@](C)(CO)CN3)n1 [Compound 139]
15.1 |  | > 10000 |  |  | 6310 | Cc1ncc(Nc2nccc(-c3cc(C#N)c4c(c3)[C@@](C)(CO)CN4)n2)c(OCC2(C)COC2)n1 [Compound 142]
7.8 |  | > 10000 |  |  | 347 | COc1nc(C2=CCOCC2)ncc1Nc1nccc(-c2cc(C#N)c3c(c2)[C@@](C)(CO)CN3)n1 [Compound 143]
24 |  | > 10000 |  |  | > 10000 | Cc1ncc(Nc2nccc(-c3cc(C#N)c4c(c3)[C@@](C)(CO)CN4)n2)c(OCC(=O)N(C)C)n1 [Compound 144]
9.5 | 479 |  |  | 4790 |  | COC[C@@]1(C)CNc2c(C#N)cc(-c3ccnc(Nc4cc(Cl)cnc4C)n3)cc21 [Compound 145]
7.9 |  |  | > 260 °C |  |  | Cc1cnc(OCC2(C)COC2)c(Nc2nccc(-c3cc(C#N)c4c(c3)[C@@](C)(CO)CN4)n2)c1 [Compound 147]
34.7 |  | ~5010 |  |  | 3160 | Cc1nccnc1Nc1nccc(-c2cc(C#N)c3c(c2)[C@@](C)(CO)CN3)n1 [Compound 163]
4.8 |  |  |  |  |  | Cc1cc(Nc2nccc(-c3cc(C#N)c4c(c3)[C@@](C)(CO)CN4)n2)c(C)nc1OC1CCN(C2CC2)CC1 [Compound 176]
